*1 amine or outer side, *2 acyl side, *3 side chain or, on linkers, in order; H or OH if unused. Where a SMILES comes first, the peptide text is derived from it. Side-chain parts run from the residue outwards. [ ]: non-standard residue; d: D form. The star is where a group is joined. Ethylenediamine = C(CN[*:2])N[*:1]; Hyp = O=C(O)[CH]1C[CH](O)CN1; Phg = N[CH](C(=O)O)c1ccccc1; CO = O=C([*:1])[*:2]; Bn = c1ccc(C*)cc1
Experiments:
[1] = test system: Kidney; assay: Microarray gene expression profiling (HG-U95A), kidney; format: in vivo, cynomolgus monkeys
Procedure: Origin of tissue and processing. Male and female cynomolgus monkeys received subcutaneously pasireotide (100 μg/animal/day) or the vehicle for 14 days. On day 15, all animals were sacrificed and tissues for RNA extraction were immediately snap-frozen and kept at −80° C. until processing.
RNA expression profiling was conducted by means of the HG-U95A gene expression probe array (Affymetrix; Santa Clara, Calif. USA), containing more than 12,600 probe sets interrogating primarily full-length human genes and also some control probe sets. The experiment was conducted according to the recommendations of the manufacturer. Briefly, total RNA was obtained by acid guanidinium thiocyanate-phenol-chloroform extraction (Trizol®, Invitrogen Life Technologies, San Diego, Calif. USA) from each frozen tissue section. The total RNA was then purified on an affinity resin (Rneasy®, Qiagen) and quantified. Double stranded cDNA was synthesized with a starting amount of approximately 5 μg full-length total RNA using the Superscript® Choice System (Invitrogen Life Technologies, Carlsbad, Calif. USA) in the presence of a T7-(dT)24 DNA oligonucleotide primer. Following synthesis, the cDNA was purified by phenol/chloroform/isoamyl alcohol extraction and ethanol precipitation. The purified cDNA was then transcribed in vitro using the BioArray® High Yield RNA Transcript Labeling Kit (ENZO, Farmingdale, N.Y. USA) in the presence of biotinylated ribonucleotides form biotin labelled cRNA. The labelled cRNA was then purified on an affinity resin (Rneasy®, Qiagen), quantified and fragmented. An amount of approximately 10 μg labelled cRNA was hybridized for 16 hours at 45° C. to an expression probe array. The array was then washed and stained twice with streptavidin-phycoerythrin (Molecular Probes,) using the GeneChip® Fluidics Workstation 400 (Affymetrix, Santa Clara, Calif. USA). The array was then scanned twice using a confocal laser scanner (GeneArray® Scanner, Agilent, Palo Alto, Calif. USA) resulting in one scanned image. This resulting “.dat-file” was processed using the MAS4 program (Affymetrix) into a “.cel-file”. The “.cel file” was captured and loaded into the Affymetrix GeneChip® Laboratory Information Management System (LIMS). The LIMS database is connected to a UNIX Sun Solaris server through a network filing system that allows for the average intensities for all probes cells (CEL file) to be downloaded into an Oracle database (NPGN). Raw data was converted to expression levels using a “target intensity” of 150. The data were evaluated for quality control and loaded in the GeneSpring® software 4.2.4 (Silicon Genetics, Calif. USA) for analysis.
On the human Affymetrix HGU95Av2 chip, probe sets for individual genes contain 20 oligonucleotide pairs, each composed of a “perfect match” 25-mer and a “mismatch” 25-mer differing from the “perfect” match oligonucleotide at a single base. After probe labelling, hybridization, and laser scanning, the expression level was estimated by averaging the differences in signal intensity measured by oligonucleotide pairs of a given probe (AvgDiff value). The fold changes and directions were calculated for selected genes, from the differences of the AvgDiff values between controls and treated.
To identify genes that were impacted by pasireotide, the dataset was initially filtered to exclude in a first wave of analysis, genes whose values were systematically in the lower expression ranges where the experimental noise is high (at least 80 in a number of experiments corresponding to the smallest number of replicas of any experimental point). In a second round of selection a threshold p-value of 0.05 (based on a t-test) identified differences between treated and control based on a two component error model (Global Error Model) and, whenever possible, with a stepdown correction for multi-hypothesis testing (Benjamini and Hochberg false discovery rate). […]

[2] = target: T1, hSST-4 (Homo sapiens, UniProt P31391); settings: background statement; cited from earlier work
T1 construct: expressed in transfected cells; host or cells: CHO cells
T1 sequence (P31391 whole entry): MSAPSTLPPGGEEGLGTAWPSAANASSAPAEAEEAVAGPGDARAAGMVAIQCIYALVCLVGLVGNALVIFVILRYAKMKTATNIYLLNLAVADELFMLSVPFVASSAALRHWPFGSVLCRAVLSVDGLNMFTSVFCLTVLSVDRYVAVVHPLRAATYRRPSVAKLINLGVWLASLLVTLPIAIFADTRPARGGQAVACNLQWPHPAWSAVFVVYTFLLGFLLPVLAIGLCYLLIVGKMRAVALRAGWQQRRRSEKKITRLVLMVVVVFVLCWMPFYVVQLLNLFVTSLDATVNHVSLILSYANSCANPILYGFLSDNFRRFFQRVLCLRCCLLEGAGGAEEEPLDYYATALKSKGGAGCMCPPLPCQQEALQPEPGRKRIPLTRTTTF

[3] = ↑ increase, treated vs controls
[4] = ↓ decrease, treated vs controls

Compound: NCCCCC1NC(=O)C(Cc2c[nH]c3ccccc23)NC(=O)C(c2ccccc2)NC(=O)C2CC(OC(=O)NCCN)CN2C(=O)C(Cc2ccccc2)NC(=O)C(Cc2ccc(OCc3ccccc3)cc2)NC1=O (stereo not drawn) [Pasireotide, cyclo[4-(NH2—C2H4—NH—CO—O)Pro-Phg-DTrp-Lys-Tyr(4-Bzl)-Phe]] (cyclo(F[Hyp]([CO-Ethylenediamine])[Phg]WKY(Bn)); configuration not given here)
- IGF-1 expression level, AvgDiff (range) ([1]; 0.1 mg/animal/14day): 25 (20 to 39)
- IGFBP2 expression level, AvgDiff (range) ([1]; 0.1 mg/animal/14day): 563 (457 to 655)
- IR expression level, AvgDiff (range) ([1]; 0.1 mg/animal/14day): 196 (163 to 265)
- SSTR2 expression level, AvgDiff (range) ([1]; 0.1 mg/animal/14day): 126 (93 to 158)
- SSTR3 expression level, AvgDiff (range) ([1]; 0.1 mg/animal/14day): 82 (33 to 120)
- Adrenomedullin RNA expression fold change [1, 3]: ↑ x1.5
- Arginine vasopressin (neurophysin II, antidiuretic hormone, diabetes insipidus, neurohypophyseal) RNA expression fold change [1, 3]: ↑ x2
- CDC37 (cell division cycle 37, S. cerevisiae, homolog) RNA expression fold change [1, 3]: homolog) ↑ x1.5
- CSF-1 receptor, formerly McDonough feline sarcoma viral (v-fms) oncogene homolog RNA expression fold change [1, 3]: homolog ↑ x2.5
- Ca++ channel, voltage-dependent, α 1H subunit RNA expression fold change [1, 3]: subunit ↑ x2
- Calcium/calmodulin-dependent protein kinase kinase 2, β RNA expression fold change [1, 3]: ↑ x1.5
- Cdk 5, regulatory subunit 2 (p39) RNA expression fold change [1, 3]: ↑ x1.5
- Cdki 1A (p21, Cip 1) RNA expression fold change [1, 3]: Cip 1) ↑ x5
- Corticotropin releasing hormone receptor type 2 beta isoform RNA expression fold change [1, 3]: ↑ x1.5
- Dopamine receptor D2 RNA expression fold change [1, 3]: ↑ x4.5
- Fas/Apo-1/CD95 RNA expression fold change [1, 3]: ↑ x1.5
- GABA (A) receptor, γ2 precursor RNA expression fold change [1, 3]: precursor ↑ x2
- GFR-bound protein 7 RNA expression fold change [1, 3]: protein 7 ↑ x2
- GFR-bound protein 14 RNA expression fold change [1, 3]: protein 14 ↑ x2
- Growth arrest-specific 6 RNA expression fold change [1, 3]: specific 6 ↑ x1.5
- IGFBP2 RNA expression fold change [1, 3]: IGFBP2 ↑ x1.5
- IL-7 R precursor RNA expression fold change [1, 3]: ↑ x2
- IRF5 RNA expression fold change [1, 3]: IRF5 ↑ x2
- K+ voltage-gated channel, Shaw-related subfamily, member 3 RNA expression fold change [1, 3]: member 3 ↑ x2.5
- LIF (cholinergic differentiation factor) RNA expression fold change [1, 3]: factor) ↑ x2
- Natriuretic peptide receptor A/guanylate cyclase A (atrionatriuretic peptide receptor A) RNA expression fold change [1, 3]: A) ↑ x2
- Opioid receptor, δ1 RNA expression fold change [1, 3]: δ1 ↑ x2.5
- PDGFR, α polypeptide RNA expression fold change [1, 3]: polypeptide ↑ x1.5
- Putative chemokine receptor; GTP-binding protein RNA expression fold change [1, 3]: ↑ x2
- SSTR2 RNA expression fold change [1, 3]: SSTR 2↑ x2
- SSTR 3 RNA expression fold change [1, 3]: SSTR 3↑ x3
- Solute carrier family 9 (Na+/H+ exchanger) isoform 3 regulatory factor 1 RNA expression fold change [1, 3]: ↑ x2
- TGF, β1 RNA expression fold change [1, 3]: TGF, β 1 ↑ x1.5
- THR binding protein RNA expression fold change [1, 3]: protein ↑x1.5
- THR, α (avian erythroblastic leukaemia viral (v-erb-a) oncogene homolog) RNA expression fold change [1, 3]: homolog) ↑x1.5
- TNFR superfamily, member 12 RNA expression fold change [1, 3]: ↑ x2
- VWF precursor RNA expression fold change [1, 3]: precursor ↑ x2
- δ sleep inducing peptide, immunoreactor RNA expression fold change [1, 3]: x2.5
- Acetylserotonin O-methyl transferase-like RNA expression fold change [1, 4]: ↓ x3
- Angiotensin receptor 1B RNA expression fold change [1, 4]: 1B ↓ x1.5
- Calmodulin 3 (phosphorrylase kinase, δ) RNA expression fold change [1, 4]: ↓ x1.5
- Cdk (CDC2-like) RNA expression fold change [1, 4]: ↓ x2
- Death effecter domain-containing RNA expression fold change [1, 4]: ↓ x3.5
- Glucocorticoid receptor DNA binding factor 1 RNA expression fold change [1, 4]: ↓ x4.5
- Glutamate receptor, metabotropic 2 precursor RNA expression fold change [1, 4]: precursor ↓ x3
- IGF-1 RNA expression fold change [1, 4]: IGF-1 ↓ x2.5
- IGF-2 RNA expression fold change [1, 4]: IGF-2 ↓ x2
- Insulin receptor RNA expression fold change [1, 4]: ↓ x3
- Na+ channel, nonvoltage-gated 1, β (Liddle syndrome) RNA expression fold change [1, 4]: syndrome) ↓ x2
- PG-endoperoxide synthase 1 (prostaglandin G/H synthase and cyclooxygenase) RNA expression fold change [1, 4]: ↓ x3.5
- PI-3-kinase, catalytic, α polypeptide RNA expression fold change [1, 4]: polypeptide ↓ x3
- PP 3 (formerly 2B), catalytic subunit, β isoform (calcineurin A β) RNA expression fold change [1, 4]: A β) ↓ x2
- Solute carrier family 6 (neurotransmitter transporter, creatin), member 8 RNA expression fold change [1, 4]: ↓ x3
- THR-associated protein, 240kδ subunit RNA expression fold change [1, 4]: subunit ↓ x1.5
- TNF, α-induced protein 3 RNA expression fold change [1, 4]: ↓ x1.5
- Vasopressin-activated calcium-mobilizing receptor-1 RNA expression fold change [1, 4]: receptor-1 ↓ x2
- binding to SSTR4 [2]: binds to all somatostatin receptors except SSTR4

— patent publication US20070275382A1, “Biomarkers for the Efficacy of Somatostatin Analogue Treatment” (priority 2003, published 2007)
